According to patent US9499495B2, “Quinazolines and azaquinazolines as dual inhibitors of RAS/RAF/MEK/ERK and PI3K/AKT/PTEN/mTOR pathways” (Asana Biosciences, LLC, priority 2013, dated 2016):

Key:
pS6RP in RKO cells = assay: In Cell Western (ICW) assay, pS6RP in RKO cells; format: cell-based; conditions: Homo sapiens, 3 h treatment
Method: (§1) Cell lines A375, A2058 and RKO obtained from the ATCC as provided above, were grown, and after attaining ˜80% confluency were trypsinized, centrifuged and resuspended in fresh media. The cells were seeded at the specified density (20,000 to 50,000) in a 96-well format black-well clear bottom plate (Corning) and incubated overnight at 37° C. in a 5% CO2 incubator. The next day, compound dilutions of test compounds were prepared in 100% DMSO followed by dilutions in respective media. Treatment of test compounds was performed for 3 h at 37° C. in 5% CO2 incubator. Following 3 h drug treatment, the conditional media was discarded and the cells were washed once with cPBS (PBS containing 0.1% magnesium chloride hexahydrate and 0.1% anhydrous calcium chloride) and fixed with 4% paraformaldehyde in cPBS for 1 h at rt. After fixing, the cells were given three washes using cPBST (cPBS containing 0.1% Triton™ X-100 reagent) and then blocked using blocking solution (5% skimmed milk powder or 5% BSA prepared in cPBST) for 2 h at rt with shaking at 300 rpm. The cells were again washed thrice with cPBST and incubated with primary antibody phospho-p44/42 MAPK(Erk1/2)(Thr202/204) antibody (Cell Signaling, Catalog # 9101L), phospho S6 ribosomal protein (Cell Signaling, Catalog #4858L), phospho AKT (Thr 308) (Cell Signaling, Catalog #9275) or phospho AKT (Ser 473) (Cell Signaling, Catalog #4060L) in specified dilutions (1:500-1:2500), prepared in respective blocking solutions, in a racker overnight at 4° C. The next day, the cells were washed with 1× Delfia® wash buffer (4×1 wash) and incubated with secondary antibody (Delfia®-Eu-N1 labeled anti-rabbit antibody; PerkinElmer, Catalog #AD0105; dilutions: 1:2000 to 1:6000 in Delfia® assay buffer (PerkinElmer, Catalog #1244-111)) for 2 h at rt in the dark at 300 rpm. The cells were then given four washes with 1× Delfia® wash buffer and incubated with Wallac Delfia® Enhancement solution (100 μL; PerkinElmer, Catalog #1244-105) for 20 min at rt in the dark at 300 rpm. The fluorescence emission was then read at 615 nm with an excitation wavelength of 340 nm using a Victor V5 Fluorometer (Perkin Elmer, US). The cells were then washed once with 1×cPBS and incubated with 100 μL of 0.5 mg/mL of Hoechst 33258 dye prepared in cPBS and read at 460 nm with 355 nm excitation, thereby evaluating the correction factor.
(§2) The % inhibition for the test compounds of formula (I) (new chemical entities (NCEs)) was calculated keeping DMSO control as 0% and the IC50 values were determined using sigmoidal dose response curve fit in GraphPad Prism® v5 software.

pERK in A375 cells = assay: In Cell Western (ICW) assay, pERK in A375 cells; format: cell-based; conditions: Homo sapiens, A-375, 3 h treatment
Summary of the method: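 RKO or A375 cells were exposed to compounds for 3 h at 37 °C, then fixed and stained in-cell with antibodies to pERK1/2 (T202/Y204), pS6RP or pAKT T308, followed by a Eu-labelled secondary. Time-resolved fluorescence (340/615 nm) was normalized to Hoechst, and IC50 values were fitted sigmoidally against DMSO as 0% inhibition.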

RKO cells = assay: XTT assay for cell viability, RKO cells; format: cell-based; conditions: Homo sapiens, 72 h
Method: Cell lines (A375 ATCC No. CRL-1619, A2058 ATCC No. CRL-11147 and RKO ATCC No. CRL-2577, American Type Culture Collection (ATCC), Manassas Va.) once attaining ˜80% confluency were trypsinized, centrifuged and resuspended in fresh media. Cells (1000-2000/per well) were seeded in 96-well plate and incubated over-night at 37° C. in a 5% CO2 incubator. Compound dilutions were prepared in 100% DMSO followed by dilutions in the respective media. The cells were treated with NCEs for 72 h at 37° C. in 5% CO2 incubator. After 72 h, freshly prepared XTT (1 mg/ml)/PMS (25 μM) solution was added, incubated for 2 to 3 h at 37° C. and the absorbance was measured at 450 nm using an ELISA plate reader. Keeping DMSO control as 100%, the effect of the compound to inhibit the cell proliferation was calculated and the GI50 values were determined using sigmoidal dose response curve fit in GraphPad Prism® v5 software.

A375 cells = assay: XTT assay for cell viability, A375 cells; format: cell-based; conditions: Homo sapiens, A-375, 72 h
Summary of the method: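 RKO and A375 cells seeded at 1000-2000/well overnight, then exposed to compound for 72 h at 37° C., 5% CO2. XTT (1 mg/ml)/PMS (25 μM) added for 2-3 h; absorbance at 450 nm. Growth relative to DMSO control (100%); GI50 from sigmoidal dose-response fit.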

pERK in RKO cells = assay: In Cell Western (ICW) assay, pERK in RKO cells; format: cell-based; conditions: Homo sapiens, 3 h treatment
Method: as §1, §2

B-RAFV600E = molecular target: T1, B-RAFV600E (Homo sapiens, UniProt P15056, V600E); assay: B-RAFV600E radiometric assay; format: biochemical; conditions: read-out: Kinase assay B-Raf
T1 construct: purchased Millipore, USA 14-557
T1 sequence (P15056 416-766 V600E limits assumed): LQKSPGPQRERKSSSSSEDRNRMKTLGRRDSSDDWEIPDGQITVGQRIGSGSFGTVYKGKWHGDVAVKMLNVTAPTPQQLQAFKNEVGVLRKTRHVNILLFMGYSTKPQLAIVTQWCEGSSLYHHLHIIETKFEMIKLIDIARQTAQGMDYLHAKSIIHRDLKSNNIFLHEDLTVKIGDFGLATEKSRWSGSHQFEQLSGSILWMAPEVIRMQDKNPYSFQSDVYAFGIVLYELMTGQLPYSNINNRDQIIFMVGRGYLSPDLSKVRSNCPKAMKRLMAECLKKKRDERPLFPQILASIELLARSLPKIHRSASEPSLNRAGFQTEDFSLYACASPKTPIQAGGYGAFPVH
Summary of the method: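 B-RAFV600E was preincubated 45 min at rt with compound in 1% DMSO. MEK-K97M (0.5 μg), 5 μM final cold ATP and [γ-32P]ATP were then added for 2 h at rt. Phosphorylated MEK was captured on P81 paper and scintillation-counted; IC50 came from a sigmoidal dose-response fit.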

mTOR kinase = molecular target: T2, mTOR kinase (Homo sapiens, UniProt P42345); assay: mTOR kinase TR-FRET assay; format: biochemical
T2 construct: purchased Millipore, US
T2 sequence (P42345 1362-2549 limits assumed): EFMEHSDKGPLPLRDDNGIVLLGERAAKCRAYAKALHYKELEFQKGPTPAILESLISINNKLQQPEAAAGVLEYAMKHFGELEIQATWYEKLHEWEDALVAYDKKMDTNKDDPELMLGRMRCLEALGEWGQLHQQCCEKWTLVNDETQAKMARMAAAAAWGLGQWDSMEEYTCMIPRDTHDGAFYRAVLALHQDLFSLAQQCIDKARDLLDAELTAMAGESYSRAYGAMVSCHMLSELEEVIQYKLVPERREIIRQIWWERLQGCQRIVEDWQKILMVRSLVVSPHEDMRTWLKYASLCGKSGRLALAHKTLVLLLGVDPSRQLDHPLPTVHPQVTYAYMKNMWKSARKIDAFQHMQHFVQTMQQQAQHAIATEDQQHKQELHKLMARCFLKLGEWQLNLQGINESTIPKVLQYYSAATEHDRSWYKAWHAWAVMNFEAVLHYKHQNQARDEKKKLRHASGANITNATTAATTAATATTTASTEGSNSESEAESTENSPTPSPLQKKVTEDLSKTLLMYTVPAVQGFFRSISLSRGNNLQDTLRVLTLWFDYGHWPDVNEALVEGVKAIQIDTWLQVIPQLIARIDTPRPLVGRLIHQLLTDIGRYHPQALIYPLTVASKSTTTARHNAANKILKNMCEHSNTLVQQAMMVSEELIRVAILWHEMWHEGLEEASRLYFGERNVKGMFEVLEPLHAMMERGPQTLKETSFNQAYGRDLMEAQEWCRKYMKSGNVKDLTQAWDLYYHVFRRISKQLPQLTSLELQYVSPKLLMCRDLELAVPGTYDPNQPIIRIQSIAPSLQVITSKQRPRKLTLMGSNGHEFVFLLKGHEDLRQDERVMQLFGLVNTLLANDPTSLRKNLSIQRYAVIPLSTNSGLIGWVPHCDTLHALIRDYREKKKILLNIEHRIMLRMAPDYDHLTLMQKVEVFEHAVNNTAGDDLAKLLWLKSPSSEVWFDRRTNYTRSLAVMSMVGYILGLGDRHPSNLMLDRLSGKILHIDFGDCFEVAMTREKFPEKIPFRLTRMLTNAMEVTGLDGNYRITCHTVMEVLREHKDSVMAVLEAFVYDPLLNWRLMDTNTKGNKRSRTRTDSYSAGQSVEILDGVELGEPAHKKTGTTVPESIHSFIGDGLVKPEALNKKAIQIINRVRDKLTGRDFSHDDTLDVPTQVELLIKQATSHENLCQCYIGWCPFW
Summary of the method: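 TR-FRET with ULight-p70 S6K (Thr 389) peptide (50 nM) and 20 μM ATP in 50 mM HEPES pH 7.5, 1 mM EGTA, 3 mM MnCl2; compound pre-incubated with enzyme before substrate addition, reaction at rt, EDTA-stopped. Eu anti-phospho antibody read 665/615 nm; IC50 from sigmoidal dose-response fit.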

PI3Kα = molecular target: T3, PI3Kα (Homo sapiens, UniProt P42336); assay: PI3 Kinase alpha TR-FRET assay; format: biochemical
T3 construct: made in house; host or cells: SF9 cells
T3 sequence (P42336 whole entry, species assumed): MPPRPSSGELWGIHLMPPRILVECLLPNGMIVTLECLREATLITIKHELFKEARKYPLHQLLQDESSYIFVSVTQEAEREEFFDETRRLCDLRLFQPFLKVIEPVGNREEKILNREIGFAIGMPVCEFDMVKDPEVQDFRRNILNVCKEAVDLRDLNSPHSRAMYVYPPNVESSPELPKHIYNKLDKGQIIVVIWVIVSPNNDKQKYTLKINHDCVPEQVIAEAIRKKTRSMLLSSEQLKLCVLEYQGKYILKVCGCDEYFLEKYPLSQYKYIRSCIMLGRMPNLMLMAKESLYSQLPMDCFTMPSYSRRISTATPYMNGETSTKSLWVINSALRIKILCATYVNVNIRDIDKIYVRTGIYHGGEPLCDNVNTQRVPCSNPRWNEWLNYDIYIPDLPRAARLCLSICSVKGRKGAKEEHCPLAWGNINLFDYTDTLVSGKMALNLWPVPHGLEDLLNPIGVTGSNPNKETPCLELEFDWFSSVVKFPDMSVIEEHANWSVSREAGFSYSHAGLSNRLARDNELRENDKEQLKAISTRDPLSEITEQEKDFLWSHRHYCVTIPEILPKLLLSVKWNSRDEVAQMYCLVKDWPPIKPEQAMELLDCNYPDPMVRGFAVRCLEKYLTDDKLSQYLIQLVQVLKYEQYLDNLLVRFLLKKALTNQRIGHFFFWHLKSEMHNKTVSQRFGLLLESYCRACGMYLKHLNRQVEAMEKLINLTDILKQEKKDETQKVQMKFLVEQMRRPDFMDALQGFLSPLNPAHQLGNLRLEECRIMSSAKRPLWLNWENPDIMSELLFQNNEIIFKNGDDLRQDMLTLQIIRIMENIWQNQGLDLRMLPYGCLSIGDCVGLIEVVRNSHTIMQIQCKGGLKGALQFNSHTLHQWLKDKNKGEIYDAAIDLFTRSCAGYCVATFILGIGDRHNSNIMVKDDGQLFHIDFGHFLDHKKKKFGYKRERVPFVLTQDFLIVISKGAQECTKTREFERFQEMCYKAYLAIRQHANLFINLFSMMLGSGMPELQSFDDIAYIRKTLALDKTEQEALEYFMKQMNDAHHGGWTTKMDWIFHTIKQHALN
T3 sequence (P27986 whole entry partner, species assumed): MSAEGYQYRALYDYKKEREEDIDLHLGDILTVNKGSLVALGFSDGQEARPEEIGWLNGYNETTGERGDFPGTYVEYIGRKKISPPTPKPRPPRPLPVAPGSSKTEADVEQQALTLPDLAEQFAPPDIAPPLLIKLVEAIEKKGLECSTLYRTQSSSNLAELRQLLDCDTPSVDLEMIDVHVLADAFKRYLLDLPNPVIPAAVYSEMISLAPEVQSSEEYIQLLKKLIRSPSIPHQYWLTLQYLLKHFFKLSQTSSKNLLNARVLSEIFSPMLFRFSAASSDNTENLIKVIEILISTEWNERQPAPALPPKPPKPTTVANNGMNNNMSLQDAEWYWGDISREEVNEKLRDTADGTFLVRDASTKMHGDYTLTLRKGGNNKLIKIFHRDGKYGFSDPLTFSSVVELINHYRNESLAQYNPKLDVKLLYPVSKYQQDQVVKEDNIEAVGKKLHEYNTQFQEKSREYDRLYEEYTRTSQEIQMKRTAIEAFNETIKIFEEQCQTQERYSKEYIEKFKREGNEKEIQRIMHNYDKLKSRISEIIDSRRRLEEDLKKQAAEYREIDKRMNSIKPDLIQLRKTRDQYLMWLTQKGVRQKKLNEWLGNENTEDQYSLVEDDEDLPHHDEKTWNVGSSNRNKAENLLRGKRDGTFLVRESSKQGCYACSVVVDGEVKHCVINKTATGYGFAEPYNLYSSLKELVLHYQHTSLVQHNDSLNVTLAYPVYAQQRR
Summary of the method: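 Purified Sf9-expressed p110/p85α (5 ng) was pre-incubated with compound and PIP2 at rt, then ATP was added (PIP2 and ATP both 40 μM) for a 30 min reaction. PIP3 was detected by TR-FRET displacement of biotin-PIP3, and IC50 was taken from dose-response curves of the 665/615 nm emission ratio.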

pAKT (T308) in RKO cells = assay: In Cell Western (ICW) assay, pAKT-T308 in RKO cells; format: cell-based; conditions: Homo sapiens, 3 h treatment
Method: as §1, §2

| SMILES | IC50 (pS6RP in RKO cells) [nM] | IC50 (pERK in A375 cells) [nM] | IC50 (RKO cells) [nM] | IC50 (A375 cells) [nM] | IC50 (pERK in RKO cells) [nM] | IC50 (B-RAFV600E) [nM] | IC50 (mTOR kinase) [nM] | IC50 (PI3Kα) [nM] | IC50 (pAKT (T308) in RKO cells) [nM] |
| --- | --- | --- | --- | --- | --- | --- | --- | --- | --- |
| Nc1ccc(-c2nc(N3CCOCC3)c3cc(-c4cccc(NS(=O)(=O)CCCF)c4F)cc(N4CCOCC4)c3n2)cn1 [Example 5, N-(3-(2-(6-aminopyridin-3-yl)-4,8-dimorpholinoquinazolin-6-yl)-2-fluorophenyl)-3-fluoropropane-1-sulfonamide] | 1 to 100 | 1 to 100 | 100 to 1000 | 1 to 100 | 1 to 100 | 1 to 100 | 1 to 100 | – | – |
| COc1cc(-c2cccc(NS(=O)(=O)CCCF)c2F)cc2c(N3CCOCC3)nc(-c3ccc(N)nc3)nc12 [Example 30, N-(3-(2-(6-aminopyridin-3-yl)-8-methoxy-4-morpholinoquinazolin-6-yl)-2-fluorophenyl)-3-fluoropropane-1-sulfonamide] | 100 to 1000 | 1 to 100 | 100 to 1000 | 100 to 1000 | 1 to 100 | 1 to 100 | 100 to 1000 | – | – |
| COc1cc(-c2cccc(NS(=O)(=O)CCCF)c2F)cc2c(N3CCOC[C@H]3C)nc(-c3ccc(N)nc3)nc12 [Example 42, (R)-N-(3-(2-(6-aminopyridin-3-yl)-8-methoxy-4-(3-methylmorpholino)quinazolin-6-yl)-2-fluorophenyl)-3-fluoropropane-1-sulfonamide] | 100 to 1000 | 1 to 100 | 100 to 1000 | 1 to 100 | 1 to 100 | 1 to 100 | 1 to 100 | – | – |
| CCOc1cc(-c2cccc(NS(=O)(=O)CCCF)c2F)cc2c(N3CCOCC3)nc(-c3ccc(N)nc3)nc12 [Example 52, N-(3-(2-(6-aminopyridin-3-yl)-8-ethoxy-4-morpholinoquinazolin-6-yl)-2-fluorophenyl)-3-fluoropropane-1-sulfonamide] | 100 to 1000 | 1 to 100 | 100 to 1000 | 1 to 100 | 1 to 100 | 1 to 100 | 100 to 1000 | – | – |
| CC(C)Oc1cc(-c2cccc(NS(=O)(=O)CCCF)c2F)cc2c(N3CCOCC3)nc(-c3ccc(N)nc3)nc12 [Example 55, N-(3-(2-(6-aminopyridin-3-yl)-8-isopropoxy-4-morpholinoquinazolin-6-yl)-2-fluorophenyl)-3-fluoropropane-1-sulfonamide] | 100 to 1000 | 1 to 100 | 100 to 1000 | 1 to 100 | 1 to 100 | 1 to 100 | 100 to 1000 | – | – |
| CC(C)Oc1cc(-c2cccc(NS(=O)(=O)CCCF)c2F)cc2c(N3CCOC[C@H]3C)nc(-c3ccc(N)nc3)nc12 [Example 63, (R)-N-(3-(2-(6-aminopyridin-3-yl)-8-isopropoxy-4-(3-methylmorpholino)quinazolin-6-yl)-2-fluorophenyl)-3-fluoropropane-1-sulfonamide] | 100 to 1000 | 1 to 100 | 100 to 1000 | 1 to 100 | 1 to 100 | 1 to 100 | 1 to 100 | – | – |
| C[C@@H]1COCCN1c1nc(-c2cnc(N)nc2)nc2c(N3CCOCC3)cc(-c3cccc(NS(=O)(=O)CCCF)c3F)cc12 [Example 73, (R)-N-(3-(2-(2-aminopyrimidin-5-yl)-4-(3-methylmorpholino)-8-morpholinoqulnazolin-6-yl)-2-fluorophenyl)-3-fluoropropane-1-sulfonamide] | 100 to 1000 | 1 to 100 | 100 to 1000 | 1 to 100 | 1 to 100 | 1 to 100 | 1 to 100 | – | – |
| Nc1ncc(-c2nc(N3CCOCC3)c3nc(-c4cccc(NS(=O)(=O)CCCF)c4F)ccc3n2)c(C(F)(F)F)n1 [Example 100, N-(3-(2-(2-amino-4-(trifluoromethyl)pyrimidin-5-yl)-4-morpholinopyrido[3,2-d]pyrimidin-6-yl)-2-fluorophenyl)-3-fluoropropane-1-sulfonamide] | – | 100 to 1000 | 100 to 1000 | 100 to 1000 | 1 to 100 | 1 to 100 | – | 1 to 100 | 100 to 1000 |
| Nc1ncc(-c2nc(N3CCOCC3)c3nc(-c4cccc(NS(=O)(=O)CCCF)c4F)ccc3n2)cc1Cl [Example 103, N-(3-(2-(6-amino-5-chloropyridin-3-yl)-4-morpholinopyrido[3,2-d]pyrimidin-6-yl)-2-fluorophenyl)-3-fluoropropane-1-sulfonamide] | – | 100 to 1000 | 1000 to 10000 | – | – | 1 to 100 | – | 100 to 1000 | 1000 to 10000 |
| Nc1ncc(-c2nc(N3CCOCC3)c3nc(-c4cccc(NS(=O)(=O)CCCF)c4F)ccc3n2)cc1F [Example 105, N-(3-(2-(6-amino-5-fluoropyridin-3-yl)-4-morpholinopyrido[3,2-d]pyrimidin-6-yl)-2-fluorophenyl)-3-fluoropropane-1-sulfonamide] | – | 100 to 1000 | 1000 to 10000 | 100 to 1000 | 100 to 1000 | 1 to 100 | – | 1 to 100 | 1000 to 10000 |
| Cc1nc(N)ncc1-c1nc(N2CCOCC2)c2nc(-c3cccc(NS(=O)(=O)CCCF)c3F)ccc2n1 [Example 109] | – | 1 to 100 | – | 100 to 1000 | 100 to 1000 | 1 to 100 | – | 1 to 100 | 1000 to 10000 |
| CNC(=O)Nc1ccc(-c2nc(N3CCOCC3)c3nc(-c4cccc(NS(=O)(=O)CCCF)c4F)ccc3n2)cc1 [Example 139, 3-fluoro-N-(2-fluoro-3-(2-(4-(3-methylureido)phenyl)-4-morpholinopyrido[3,2-d]pyrimidin-6-yl)phenyl)propane-1-sulfonamide] | – | 100 to 1000 | 100 to 1000 | 100 to 1000 | 100 to 1000 | 1 to 100 | 1 to 100 | – | 100 to 1000 |
